In publication PMC11713119, “Optimizing metabolic stability of phosphodiesterase 5 inhibitors: Discovery of a potent N‐(pyridin‐3‐ylmethyl)quinoline derivative targeting synaptic plasticity” (Alzheimer's & Dementia, 2025):

Biological target: T1, Phosphodiesterase 5 (PDE5) (Homo sapiens, UniProt O76074)
T1 construct: gene PDE5A
Assay: PDE5 inhibition IC50 (assay details not given)
Assay type: biochemical

SMILES	IC50 [nM]
COc1ccc(CNc2c(CO)cnc3c(C4CC4)cc(C#N)cc23)cn1 [4b, 8‐cyclopropyl‐3‐(hydroxymethyl)‐4‐(((6‐methoxypyridin‐3‐yl)methyl)amino)quinoline‐6‐carbonitrile]	20
COc1ccc(CNc2c(CO)cnc3c(C4CC4)cc(C#N)cc23)cc1Cl [7a, 4‐((3‐chloro‐4‐methoxybenzyl)amino)‐8‐cyclopropyl‐3‐(hydroxymethyl)quinoline‐6‐carbonitrile]	0.27
